Measured values reported in patent publication US7026304B2, “2-alkylated-cyclodextrin derivatives: reversal agents for drug-induced neuromuscular block” (Akzo Nobel N.V., priority 2001, dated 2006).
Where two headings read alike, the source gives them in different places.

Experiments:
[1] = tested on: steady-state neuromuscular block induced by the muscle relaxant rocuronium bromide (Roc); assay: Reversal of neuromuscular blockade in anaesthetized guinea pigs in vivo; design: species or system guinea pig
Procedure: Reversal of Neuromuscular Blockade in Anaesthetized Guinea Pigs in vivo Male Dunkin-Hartley guinea pigs (bodyweight: 600–900 g) were anaesthetized by i.p. administration of 10 mg/kg pentobarbitone and 1000 mg/kg urethane. After tracheotomy, the animals were artificially ventilated using a Harvard small animal ventilator. A catheter was placed into the carotid artery for continuous monitoring of arterial blood pressure and the taking of blood samples for blood gas analysis. Heart rate was derived from the blood pressure signal. The sciatic nerve was stimulated (rectangular pulses of 0.5 ms duration at 10 s (0.1 Hz) intervals at a supramaximal voltage, using a Grass S88 Stimulator) and the force of M. gastrocnemius contractions was measured using a Grass FT03 force-displacement transducer. Contractions, blood pressure and heart rate were recorded on a multichannel Grass 7D recorder. Catheters were placed in both jugular veins. One catheter was used for the continuous infusion of a neuromuscular blocking agent. […] The other catheter was used for administration of increasing doses of the reversal agent. During continuous infusion of the neuromuscular blocking agent, single doses of increasing concentration of reversal agent were given.

[2] = tested on: steady-state neuromuscular block induced by the muscle relaxant rocuronium bromide (Roc); details: anaesthetized guinea pigs, as already described in WO 01/12202, cited from earlier work
[3] = anaesthetized guinea pigs, rocuronium bromide-induced steady-state block
[4] = anaesthetized guinea pigs, rocuronium bromide-induced steady-state block, dose at which % max reversal was reached
[5] = anaesthetized male Dunkin-Hartley guinea pigs, rocuronium bromide infusion to steady-state block of 85–90%, reversal agent i.v. in increasing doses

Molecule	% max reversal [1, 3] [%]	concentration at maximum reversal [1, 4]	ED50, dose producing 50% reversal of steady-state neuromuscular block [1, 5] [µmol/kg]	other results
O=C([O-])c1ccc(CO[C@H]2[C@H]3O[C@H]4[C@H](O)[C@@H](OCc5ccc(C(=O)[O-])cc5)[C@@H](O[C@H]5[C@H](O)[C@@H](OCc6ccc(C(=O)[O-])cc6)[C@@H](O[C@H]6[C@H](O)[C@@H](OCc7ccc(C(=O)[O-])cc7)[C@@H](O[C@H]7[C@H](O)[C@@H](OCc8ccc(C(=O)[O-])cc8)[C@@H](O[C@H]8[C@H](O)[C@@H](OCc9ccc(C(=O)[O-])cc9)[C@@H](O[C@H]9[C@H](O)[C@@H](OCc%10ccc(C(=O)[O-])cc%10)[C@@H](O[C@H]%10[C@H](O)[C@@H](OCc%11ccc(C(=O)[O-])cc%11)[C@@H](O[C@@H]([C@@H]2O)[C@@H](CO)O3)O[C@@H]%10CO)O[C@@H]9CO)O[C@@H]8CO)O[C@@H]7CO)O[C@@H]6CO)O[C@@H]5CO)O[C@@H]4CO)cc1.[Na+].[Na+].[Na+].[Na+].[Na+].[Na+].[Na+].[Na+] [Example 3, Octakis per-2-O-(4-carboxybenzyl)-γ-cyclodextrin, Na salt]	97	(0.8) μmol · kg^−1	0.20	
O=C([O-])c1ccccc1CO[C@H]1[C@H]2O[C@H]3[C@H](O)[C@@H](OCc4ccccc4C(=O)[O-])[C@@H](O[C@H]4[C@H](O)[C@@H](OCc5ccccc5C(=O)[O-])[C@@H](O[C@H]5[C@H](O)[C@@H](OCc6ccccc6C(=O)[O-])[C@@H](O[C@H]6[C@H](O)[C@@H](OCc7ccccc7C(=O)[O-])[C@@H](O[C@H]7[C@H](O)[C@@H](OCc8ccccc8C(=O)[O-])[C@@H](O[C@H]8[C@H](O)[C@@H](OCc9ccccc9C(=O)[O-])[C@@H](O[C@H]9[C@H](O)[C@@H](OCc%10ccccc%10C(=O)[O-])[C@@H](O[C@@H]([C@@H]1O)[C@@H](CO)O2)O[C@@H]9CO)O[C@@H]8CO)O[C@@H]7CO)O[C@@H]6CO)O[C@@H]5CO)O[C@@H]4CO)O[C@@H]3CO.[Na+].[Na+].[Na+].[Na+].[Na+].[Na+].[Na+].[Na+] [Example 4, Octakis per-2-O-(2-carboxybenzyl)-γ-cyclodextrin, Na salt]	84	(15) μmol · kg^−1	3.4	
O=C([O-])c1ccc(CO[C@H]2[C@H]3O[C@H]4[C@H](O)[C@@H](O)[C@@H](O[C@H]5[C@H](O)[C@@H](O)[C@@H](O[C@H]6[C@H](O)[C@@H](O)[C@@H](O[C@H]7[C@H](O)[C@@H](O)[C@@H](O[C@H]8[C@H](O)[C@@H](O)[C@@H](O[C@H]9[C@H](O)[C@@H](O)[C@@H](O[C@H]%10[C@H](O)[C@@H](O)[C@@H](O[C@@H]([C@@H]2O)[C@@H](CO)O3)O[C@@H]%10CO)O[C@@H]9CO)O[C@@H]8CO)O[C@@H]7CO)O[C@@H]6CO)O[C@@H]5CO)O[C@@H]4CO)cc1.[Na+] [Example 5, Mono-2-O-(4-carboxybenzyl)-γ-cyclodextrin sodium salt]	96	(2.6) μmol · kg^−1	0.25	
O=C([O-])CCSCCCO[C@H]1[C@H]2O[C@H]3[C@H](O)[C@@H](OCCCSCCC(=O)[O-])[C@@H](O[C@H]4[C@H](O)[C@@H](OCCCSCCC(=O)[O-])[C@@H](O[C@H]5[C@H](O)[C@@H](OCCCSCCC(=O)[O-])[C@@H](O[C@H]6[C@H](O)[C@@H](OCCCSCCC(=O)[O-])[C@@H](O[C@H]7[C@H](O)[C@@H](OCCCSCCC(=O)[O-])[C@@H](O[C@H]8[C@H](O)[C@@H](OCCCSCCC(=O)[O-])[C@@H](O[C@H]9[C@H](O)[C@@H](OCCCSCCC(=O)[O-])[C@@H](O[C@@H]([C@@H]1O)[C@@H](CO)O2)O[C@@H]9CO)O[C@@H]8CO)O[C@@H]7CO)O[C@@H]6CO)O[C@@H]5CO)O[C@@H]4CO)O[C@@H]3CO.[Na+].[Na+].[Na+].[Na+].[Na+].[Na+].[Na+].[Na+] [Example 6, Octakis per-2-O-(6-carboxy-4-thia-hexyl)-γ-cyclodextrin, Na salt]				% max reversal ([1]; guinea pig, in vivo): 86%; concentration at maximum reversal ([1]; guinea pig, in vivo): (16) μmol · kg^−1; ED50, dose producing 50% reversal of steady-state neuromuscular block ([1]; guinea pig, in vivo, iv): 3.4 µmol/kg
O=C([O-])CSCCCO[C@H]1[C@H]2O[C@H]3[C@H](O)[C@@H](OCCCSCC(=O)[O-])[C@@H](O[C@H]4[C@H](O)[C@@H](OCCCSCC(=O)[O-])[C@@H](O[C@H]5[C@H](O)[C@@H](OCCCSCC(=O)[O-])[C@@H](O[C@H]6[C@H](O)[C@@H](OCCCSCC(=O)[O-])[C@@H](O[C@H]7[C@H](O)[C@@H](OCCCSCC(=O)[O-])[C@@H](O[C@H]8[C@H](O)[C@@H](OCCCSCC(=O)[O-])[C@@H](O[C@H]9[C@H](O)[C@@H](OCCCSCC(=O)[O-])[C@@H](O[C@@H]([C@@H]1O)[C@@H](CO)O2)O[C@@H]9CO)O[C@@H]8CO)O[C@@H]7CO)O[C@@H]6CO)O[C@@H]5CO)O[C@@H]4CO)O[C@@H]3CO.[Na+].[Na+].[Na+].[Na+].[Na+].[Na+].[Na+].[Na+] [Example 7, Octakis per-2-O-(5-carboxy-4-thia-pentyl)-γ-cyclodextrin, Na salt]	91	(10) μmol · kg^−1	1.12	
O=S(=O)([O-])CCSCCCO[C@H]1[C@H]2O[C@H]3[C@H](O)[C@@H](OCCCSCCS(=O)(=O)[O-])[C@@H](O[C@H]4[C@H](O)[C@@H](OCCCSCCS(=O)(=O)[O-])[C@@H](O[C@H]5[C@H](O)[C@@H](OCCCSCCS(=O)(=O)[O-])[C@@H](O[C@H]6[C@H](O)[C@@H](OCCCSCCS(=O)(=O)[O-])[C@@H](O[C@H]7[C@H](O)[C@@H](OCCCSCCS(=O)(=O)[O-])[C@@H](O[C@H]8[C@H](O)[C@@H](OCCCSCCS(=O)(=O)[O-])[C@@H](O[C@H]9[C@H](O)[C@@H](OCCCSCCS(=O)(=O)[O-])[C@@H](O[C@@H]([C@@H]1O)[C@@H](CO)O2)O[C@@H]9CO)O[C@@H]8CO)O[C@@H]7CO)O[C@@H]6CO)O[C@@H]5CO)O[C@@H]4CO)O[C@@H]3CO.[Na+].[Na+].[Na+].[Na+].[Na+].[Na+].[Na+].[Na+] [Example 8, Octakis per-2-O-(6-sulfo-4-thia-hexyl)-γ-cyclodextrin, Na salt]	85	(4.5) μmol · kg^−1	1.4	
OCC(O)CSCCCO[C@H]1[C@H]2O[C@H]3[C@H](O)[C@@H](OCCCSCC(O)CO)[C@@H](O[C@H]4[C@H](O)[C@@H](OCCCSCC(O)CO)[C@@H](O[C@H]5[C@H](O)[C@@H](OCCCSCC(O)CO)[C@@H](O[C@H]6[C@H](O)[C@@H](OCCCSCC(O)CO)[C@@H](O[C@H]7[C@H](O)[C@@H](OCCCSCC(O)CO)[C@@H](O[C@H]8[C@H](O)[C@@H](OCCCSCC(O)CO)[C@@H](O[C@@H]([C@@H]1O)[C@@H](CO)O2)O[C@@H]8CO)O[C@@H]7CO)O[C@@H]6CO)O[C@@H]5CO)O[C@@H]4CO)O[C@@H]3CO (stereo partly drawn) [Example 9, Heptakis per-2-O-(6,7-dihydroxy-4-thia-heptyl)-β-cyclodextrin]	93	(6.4) μmol · kg^−1	1.10	
OCCOCCSCCCO[C@H]1[C@H]2O[C@H]3[C@H](O)[C@@H](OCCCSCCOCCO)[C@@H](O[C@H]4[C@H](O)[C@@H](OCCCSCCOCCO)[C@@H](O[C@H]5[C@H](O)[C@@H](OCCCSCCOCCO)[C@@H](O[C@H]6[C@H](O)[C@@H](OCCCSCCOCCO)[C@@H](O[C@H]7[C@H](O)[C@@H](OCCCSCCOCCO)[C@@H](O[C@H]8[C@H](O)[C@@H](OCCCSCCOCCO)[C@@H](O[C@@H]([C@@H]1O)[C@@H](CO)O2)O[C@@H]8CO)O[C@@H]7CO)O[C@@H]6CO)O[C@@H]5CO)O[C@@H]4CO)O[C@@H]3CO [Example 10, Heptakis per-2-O-(9-hydroxy-7-oxa-4-thia-nonyl)-β-cyclodextrin]	72	(12) μmol · kg^−1	5.6	
OC[C@H]1O[C@@H]2O[C@H]3[C@H](O)[C@@H](O)[C@@H](O[C@H]4[C@H](O)[C@@H](O)[C@@H](O[C@H]5[C@H](O)[C@@H](O)[C@@H](O[C@H]6[C@H](O)[C@@H](O)[C@@H](O[C@H]7[C@H](O)[C@@H](O)[C@@H](O[C@H]8[C@H](O)[C@@H](O)[C@@H](O[C@H]1[C@H](O)[C@H]2O)O[C@@H]8CO)O[C@@H]7CO)O[C@@H]6CO)O[C@@H]5CO)O[C@@H]4CO)O[C@@H]3CO [β-cyclodextrin]				ED50, dose producing 50% reversal of steady-state neuromuscular block ([2]; parent cyclodextrins for comparison): 20 µmol/kg; % max reversal ([2]; parent cyclodextrins): 93%; dose at maximum reversal ([2]; parent cyclodextrins): (113) μmol · kg^−1
Octakis per-2-O-(3-carboxybenzyl)-γ-cyclodextrin, Na salt [Example 2]	104	(4.8) μmol · kg^−1	0.38	
